Measured values as given in patent EP4671246A1, “6-ALKOXYPYRAZOLOPYRIMIDINE COMPOUND AND PHARMACEUTICAL USE THEREOF” (Japan Tobacco Inc., priority 2023, dated 2024).

The molecules below were run against T1, NLRP3 inflammasome (Homo sapiens, UniProt Q96P20) (assay: Evaluation of NLRP3 inflammasome inhibitory activity (inhibition of IL-1β production in THP1-Null cells)). Details: 0.5 µmol/L PMA overnight, 1 µg/mL Lipopolysaccharides 3 hours, Nigericin 7.5 µmol/L 1.5 hours, AlphaLISA Human IL-1β.
T1 construct: host or cells: THP1-Null cells (PMA-differentiated, LPS-primed, nigericin-stimulated)
Assay type: cell-based
Procedure: The NLRP3 inflammasome inhibitory activity of test compounds were evaluated on the basis of the inhibitory activity of the IL-1β production in THP1-Null cells (Product Number: thp-null, InvivoGen). Cells were maintained for culture in RPMI-1640 media containing 10% (v/v) fetal bovine serum, 25 mmol/L HEPES, 100 U/mL penicillin, 100 µg/mL streptomycin, 100 µg/mL normocin, and 200 µg/mL hygromycin B (set at 37°C, 5% CO2/95% air) .
Cells were suspended with media for assay containing 0.5 µmol/L PMA (RPMI-1640 media containing 10% (v/v) fetal bovine serum, 100 U/mL penicillin, and 100 µg/mL streptomycin), and the suspended cells were seeded on Corning (registered trademark) 384-well Flat Clear Bottom Black Polystyrene TC-treated Microplates (25,000 cells/25 µL/well), followed by incubation (set at 37°C, 5% CO2/95% air) overnight. The supernatant of the culture was removed, and thereto was added media for assay (25 µL/well) containing 1 µg/mL Lipopolysaccharides (Product Number: L2654, Sigma-Aldrich (registered trademark)). Then, the culture was further incubated for 3 hours (set at 37°C, 5% CO2/95% air) . The supernatant of the culture was removed. Then, a vehicle solution prepared from Opti-MEM (trademark) medium (Product Number: 31985-070, Invitrogen) was added to blank-setting wells and control-setting wells (20 µL/well), followed by incubation for 15 minutes (set at 37°C, 5% CO2/95% air). A solution containing a test compound (20 µL/well) was added to test compound-setting wells. Further, Opti-MEM (trademark) medium containing Nigericin (Product Number: N7143, Sigma-Aldrich (registered trademark)) was added to the control-setting wells and test compound-setting wells (5 µL/well), followed by incubation for 1.5 hours (set at 37°C, 5% CO2/95% air). The final concentration of Nigericin was adjusted to be 7.5 µmol/L. 5 µL/well of Opti-MEM (trademark) medium was added to the blank-setting wells. The supernatant of the culture was cryonically stored (set at -20°C) until measurement of IL-1β.
The amount of IL-1β in the culture supernatant was quantitated with AlphaLISA (registered trademark) Human IL-1β Detection Kit (Product Number: AL220C, Perkin Elmer). Fluorescence intensity was measured with a microplate reader EnSpier (Model number: 2300-00J, Perkin Elmer) or EnSight (Model number: HH34000000, Perkin Elmer) according to procedure manuals attached thereto. Inhibition rates of the test compound-setting wells were calculated on the basis of 100% for the blank-setting wells and 0% for the control-setting wells. IC50 values (i.e., 50% inhibitory concentrations) of the test compounds were calculated by logistic regression analysis.

T1 sequence (Q96P20 whole entry): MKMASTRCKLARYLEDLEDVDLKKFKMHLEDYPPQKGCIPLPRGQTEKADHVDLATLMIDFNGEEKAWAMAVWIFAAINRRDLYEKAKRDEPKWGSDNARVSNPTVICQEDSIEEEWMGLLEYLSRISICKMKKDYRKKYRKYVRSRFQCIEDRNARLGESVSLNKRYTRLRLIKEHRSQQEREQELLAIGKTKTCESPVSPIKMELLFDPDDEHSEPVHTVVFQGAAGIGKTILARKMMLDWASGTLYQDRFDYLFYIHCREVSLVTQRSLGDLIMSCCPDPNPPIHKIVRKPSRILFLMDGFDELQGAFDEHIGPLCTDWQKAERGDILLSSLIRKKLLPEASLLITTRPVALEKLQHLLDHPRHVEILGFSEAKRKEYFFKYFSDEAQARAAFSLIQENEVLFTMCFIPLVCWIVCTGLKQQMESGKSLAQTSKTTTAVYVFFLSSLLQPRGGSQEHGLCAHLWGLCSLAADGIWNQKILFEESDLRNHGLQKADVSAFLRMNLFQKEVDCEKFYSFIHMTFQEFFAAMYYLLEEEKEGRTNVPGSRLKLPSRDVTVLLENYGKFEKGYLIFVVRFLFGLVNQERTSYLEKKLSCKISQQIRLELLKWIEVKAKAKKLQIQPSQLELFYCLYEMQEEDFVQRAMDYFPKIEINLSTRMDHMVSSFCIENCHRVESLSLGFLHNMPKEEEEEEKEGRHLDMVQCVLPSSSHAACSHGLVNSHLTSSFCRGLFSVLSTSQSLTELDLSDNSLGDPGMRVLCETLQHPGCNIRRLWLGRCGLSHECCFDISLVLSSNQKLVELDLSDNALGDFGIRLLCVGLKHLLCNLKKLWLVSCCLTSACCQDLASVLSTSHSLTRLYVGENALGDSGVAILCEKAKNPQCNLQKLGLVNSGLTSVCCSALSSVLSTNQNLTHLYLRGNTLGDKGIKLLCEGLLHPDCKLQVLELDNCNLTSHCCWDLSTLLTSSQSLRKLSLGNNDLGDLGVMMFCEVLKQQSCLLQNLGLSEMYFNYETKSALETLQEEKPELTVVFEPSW

| SMILES | IC50 |
| --- | --- |
| Cc1cc(C2CC2)cc(C)c1-n1cc2c(=O)[nH]c(OCCC3CCOCC3)nc2n1 [Example 73] | 18 nM |
| COc1nc2nn(-c3ccccc3C)cc2c(=O)[nH]1 [Example 1] | 4200 nM |
| COc1ccc(-n2cc3c(=O)[nH]c(OC)nc3n2)c(C(F)(F)F)c1 [Example 24] | 53 nM |
| COc1nc2nn(-c3cc4c(cc3Cl)OCC4)cc2c(=O)[nH]1 [Example 82] | 75 nM |
| COc1nc2nn(-c3c(Cl)cc(F)cc3OC)cc2c(=O)[nH]1 [Example 77] | 2400 nM |
| COc1nc2nn(-c3ccc(Br)cc3C(O)C3CC3)cc2c(=O)[nH]1 (racemic) [Example 53] | 160 nM |
| COCCOc1nc2nn(-c3c(C)cc(Br)cc3C)cc2c(=O)[nH]1 [Example 107] | 23 nM |
| Cc1cc(Br)cc(C)c1-n1cc2c(=O)[nH]c(OCC(F)F)nc2n1 [Example 67] | 43 nM |
| COc1nc2nn(-c3c(C)cc(C4CC4)cc3F)cc2c(=O)[nH]1 [Example 28] | 15 nM |
| CCOc1nc2nn(-c3ccc(OC)cc3Br)cc2c(=O)[nH]1 [Example 49] | 73 nM |
| COc1nc2nn(-c3ccc(Br)cc3C)cc2c(=O)[nH]1 [Example 69] | 57 nM |
| COc1nc2nn(-c3cc(C)c(Cl)cc3C)cc2c(=O)[nH]1 [Example 26] | 1200 nM |
| Cc1cc(Br)cc(C)c1-n1cc2c(=O)[nH]c(OCCCS(C)(=O)=O)nc2n1 [Example 35] | 7 nM |
| COc1nc2nn(-c3c(F)cc(F)cc3Cl)cc2c(=O)[nH]1 [Example 75] | 1300 nM |
| Cc1cc(C2CC2)cc(C)c1-n1cc2c(=O)[nH]c(OCCCO)nc2n1 [Example 116] | 11 nM |
| Cc1cc(Br)cc(C)c1-n1cc2c(=O)[nH]c(OC3CCOCC3)nc2n1 [Example 16] | 25 nM |
| COCc1cc(C2CC2)ccc1-n1cc2c(=O)[nH]c(OC)nc2n1 [Example 42] | 63 nM |
| Cc1cc(Br)cc(C)c1-n1cc2c(=O)[nH]c(OC[C@@H]3CCOC3)nc2n1 [Example 112] | 38 nM |
| Cc1c(-n2cc3c(=O)[nH]c(OCC4CC4)nc3n2)c(C(F)(F)F)nn1C(C)C [Example 102] | 670 nM |
| COc1nc2nn(-c3ccc(Br)cc3C(C)C)cc2c(=O)[nH]1 [Example 81] | 58 nM |
| Cc1cc(Br)cc(C)c1-n1cc2c(=O)[nH]c(OC(C)C)nc2n1 [Example 33] | 24 nM |
| Cc1cc(Br)cc(C)c1-n1cc2c(=O)[nH]c(OCCCS(=O)(=O)C(C)C)nc2n1 [Example 58] | 6 nM |
| Cc1cc(Br)cc(C)c1-n1cc2c(=O)[nH]c(OCCCS(=O)(=O)C(C)(C)C)nc2n1 [Example 64] | 7 nM |
| Cc1cc(Br)cc(C)c1-n1cc2c(=O)[nH]c(OCCN(C)C)nc2n1 [Example 25] | 53 nM |
| COc1nc2nn(-c3c(C)cc(C(F)F)cc3C)cc2c(=O)[nH]1 [Example 65] | 140 nM |
| CCc1cc(C2CC2)ccc1-n1cc2c(=O)[nH]c(OC)nc2n1 [Example 80] | 17 nM |

| SMILES | IC50 |
| --- | --- |
| COCc1cc(C)c(-n2cc3c(=O)[nH]c(OC)nc3n2)c(C)c1 [Example 87] | 1200 nM |
| COc1nc2nn(-c3cc4c(cc3Cl)OCCC4)cc2c(=O)[nH]1 [Example 103] | 110 nM |
| COc1nc2nn(-c3c(C)cc(C4CC4(F)F)cc3C)cc2c(=O)[nH]1 (racemic) [Example 120] | 88 nM |
| COc1nc2nn(-c3ccc(Cl)c(C)c3C)cc2c(=O)[nH]1 [Example 32] | 760 nM |
| Cc1cc(C2CC2)cc(C)c1-n1cc2c(=O)[nH]c(OCCC(C)(C)C#N)nc2n1 [Example 117] | 31 nM |
| COc1nc2nn(-c3c(C)cc(Br)cc3OC(F)F)cc2c(=O)[nH]1 [Example 104] | 13 nM |
| COc1nc2nn(-c3ccc(Cl)cc3C)cc2c(=O)[nH]1 [Example 11] | 50 nM |
| COc1nc2nn(-c3ccc(C4CC4)cc3C(F)(F)F)cc2c(=O)[nH]1 [Example 45] | 14 nM |
| COc1nc2nn(-c3c(C)cc(Br)cc3C)cc2c(=O)n1C [Example 23] | 680 nM |
| COc1nc2nn(-c3ccc(Br)cc3C(F)F)cc2c(=O)[nH]1 [Example 59] | 55 nM |
| Cc1cc(C)c(-n2cc3c(=O)[nH]c(OCC4CC4)nc3n2)c(C)c1 [Example 3] | 9 nM |
| COCc1cc(Br)ccc1-n1cc2c(=O)[nH]c(OC)nc2n1 [Example 41] | 70 nM |
| COc1nc2nn(-c3c(C)cc(C4CC4)cc3C)cc2c(=O)[nH]1 [Example 14] | 8 nM |
| Cc1cc(C)c(-n2cc3c(=O)[nH]c(OCc4ccccc4)nc3n2)c(C)c1 [Example 7] | 72 nM |
| Cc1cc(Br)cc(C)c1-n1cc2c(=O)[nH]c(OCCCC#N)nc2n1 [Example 114] | 19 nM |
| COc1nc2nn(-c3c(C)cc(C)cc3C)cc2c(=O)[nH]1 [Example 8] | 37 nM |
| COc1nc2nn(-c3ccc(C)cc3C)cc2c(=O)[nH]1 [Example 2] | 79 nM |
| COc1nc2nn(-c3c(C)cc(C4CC4)cc3C)c(C#N)c2c(=O)[nH]1 [Example 119] | 23 nM |
| Cc1cc(C2CC2)cc(C)c1-n1cc2c(=O)[nH]c(OCCCS(C)(=O)=O)nc2n1 [Example 38] | 8 nM |
| Cc1cc(Br)cc(C)c1-n1cc2c(=O)[nH]c(OC3CCC(S(C)(=O)=O)CC3)nc2n1 (stereo not drawn) [Example 52] | 59 nM |
| COc1nc2nn(-c3c(C)cc(OC(F)(F)F)cc3C)cc2c(=O)[nH]1 [Example 61] | 69 nM |
| COc1cc(F)c(-n2cc3c(=O)[nH]c(OC)nc3n2)c(Cl)c1 [Example 76] | 74 nM |
| Cc1cc(Br)cc(C)c1-n1cc2c(=O)[nH]c(OCCC3CCOCC3)nc2n1 [Example 72] | 27 nM |
| COc1nc2nn(-c3c(C)cc(C(C)(C)O)cc3C)cc2c(=O)[nH]1 [Example 31] | 2400 nM |
| COc1nc2nn(-c3c(C)cc(C(F)(F)F)cc3C)cc2c(=O)[nH]1 [Example 22] | 43 nM |
